{"source": "PubChem BioAssay AID2202554", "about": "(NIEHS Division of Translational Toxicology (DTT))", "note": "Records with an inconclusive call do not appear. Active and inactive are the calls of the source. No rule for the calls is given here.", "data": [{"system": "S. typhimurium/E. coli reverse mutation, colony counts", "experiment": "Bacterial reverse mutation test (aka Ames test) summary data", "procedure,_shortened": "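Revertant colony counts on plates, compared with untreated controls, after about two days of growth. Exposure with or without liver S9 (rat/hamster/mouse), dose range per strain, 20-min 37° C preincubation or direct plate incorporation. Strains: his⁻ Salmonella, trp⁻ E. coli WP2 uvrA pKM101.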", "values": [{"smiles": "CCS(=O)CCSP(=O)(OC)OC", "note": "(stereo not drawn)", "outcome": "active; positive"}, {"smiles": "CCCC=NO", "outcome": "active; weakly positive"}, {"smiles": "C=C(Cl)C(=O)OC", "outcome": "active; positive"}, {"smiles": "COc1c2occc2cc2ccc(=O)oc12", "outcome": "active; positive"}, {"smiles": "Cc1c(C(=O)O)cccc1[N+](=O)[O-]", "outcome": "active; positive"}, {"smiles": "Nc1ccc([N+](=O)[O-])cc1N", "outcome": "active; positive"}, {"smiles": "CN(C)C(=O)Nc1cccc(C(F)(F)F)c1", "outcome": "inactive; negative"}, {"smiles": "NC=O", "outcome": "inactive; negative"}, {"smiles": "CCCCn1cc[n+](C)c1", "outcome": "inactive; negative"}, {"smiles": "Nc1ccc2ccccc2c1", "outcome": "active; positive"}, {"smiles": "COc1ccc(O)cc1", "outcome": "inactive; negative"}, {"smiles": "Cc1ccccc1Br", "outcome": "inactive; negative"}, {"smiles": "Cc1ccc(N)cc1O", "outcome": "active; positive"}, {"smiles": "O=Cc1ccc(Cl)cc1", "outcome": "inactive; negative"}, {"smiles": "COc1cc(N)ccc1C", "outcome": "active; positive"}, {"smiles": "C1CCCNCC1", "outcome": "inactive; negative"}, {"smiles": "CC(=O)c1ccncc1", "outcome": "inactive; negative"}, {"smiles": "CCCCCC(=O)O", "outcome": "inactive; negative"}, {"smiles": "C=CC(=O)OCCOCCOCCOCCOC(=O)C=C", "outcome": "inactive; negative"}, {"smiles": "Fc1ccccc1", "outcome": "active; positive"}, {"smiles": "CCOC(=O)c1ccccc1N", "outcome": "inactive; negative"}, {"smiles": "CCOC(=O)C1OC1c1ccccc1", "note": "(stereo not drawn)", "outcome": "inactive; negative"}, {"smiles": "CC1=NN(c2ccccc2)C(=O)C1", "outcome": "inactive; negative"}, {"smiles": "O=[N+]([O-])c1ccccc1CCl", "outcome": "active; positive"}, {"smiles": "O=[N+]([O-])c1ccc(Nc2ccc(Nc3ccccc3)c(S(=O)(=O)O)c2)c([N+](=O)[O-])c1", "outcome": "active; positive"}, {"smiles": "CC=Cc1ccc(O)c(OC)c1", "outcome": "inactive; negative"}, {"smiles": "CC1=C(/C=C/C(C)=C/C=C/C(C)=C/CO)C(C)(C)CCC1", "outcome": "active; weakly positive"}, {"smiles": "NC(=O)NC(N)=O", "outcome": "active; positive"}, {"smiles": "Cc1ccc([N+](=O)[O-])cc1C(=O)O", "outcome": "active; positive"}, {"smiles": "CN(C)CCCN", "outcome": "inactive; negative"}, {"smiles": "ClCBr", "outcome": "active; positive"}, {"smiles": "CC(C)Oc1ccc(Nc2ccccc2)cc1", "outcome": "inactive; negative"}, {"smiles": "COP(=S)(OC)Oc1ccc(SC)c(C)c1", "outcome": "active; weakly positive"}, {"smiles": "[Cl-].[Cl-].[Hg+2]", "outcome": "inactive; negative"}, {"smiles": "CN(C)c1ccc(N=NS(=O)(=O)O)cc1", "outcome": "active; positive"}, {"smiles": "OC(c1ccc(Cl)cc1)(c1ccc(Cl)cc1)C(Cl)(Cl)Cl", "outcome": "inactive; negative"}, {"smiles": "Nc1ccc2ccccc2c1N=Nc1ccc([N+](=O)[O-])cc1", "outcome": "active; positive"}, {"smiles": "CN[C@@H]1[C@H](O[C@H]2[C@H](O[C@H]3[C@H](O)[C@@H](O)[C@H](NC(=N)N)[C@@H](O)[C@@H]3N=C(N)N)O[C@@H](C)[C@]2(O)C=O)O[C@@H](CO)[C@H](O)[C@H]1O", "outcome": "active; weakly positive"}, {"smiles": "Nc1c2c(nc3ccccc13)CCCC2", "outcome": "active; positive"}, {"smiles": "C=CC(=O)OC", "outcome": "inactive; negative"}, {"smiles": "CCC(C)=NO", "outcome": "active; positive"}, {"smiles": "C=C(C)c1ccccc1", "outcome": "inactive; negative"}, {"smiles": "O=C(Nc1ccccc1SSc1ccccc1NC(=O)c1ccccc1)c1ccccc1", "outcome": "inactive; negative"}, {"smiles": "CC(C)Nc1ccc(Nc2ccccc2)cc1", "outcome": "inactive; negative"}, {"smiles": "Nc1ccc(S(=O)(=O)Nc2ccccn2)cc1", "outcome": "inactive; negative"}, {"smiles": "c1ccc(Nc2ccc3ccccc3c2)cc1", "outcome": "inactive; negative"}, {"smiles": "CCNCC", "outcome": "inactive; negative"}, {"smiles": "COC(=O)c1ccc(C(=O)OC)cc1", "outcome": "inactive; negative"}, {"smiles": "Cc1ccc(S(N)(=O)=O)cc1", "outcome": "inactive; negative"}, {"smiles": "NCCc1ccc(O)c(O)c1", "outcome": "active; weakly positive"}, {"smiles": "COC(=O)c1ccccc1N", "outcome": "inactive; negative"}, {"smiles": "COCCO", "outcome": "inactive; negative"}, {"smiles": "CCCCC=O", "outcome": "inactive; negative"}, {"smiles": "CC(=O)OCc1ccccc1", "outcome": "inactive; negative"}, {"smiles": "COc1ccc(C2=N[C@H](c3ccc(Cl)cc3)[C@H](c3ccc(Cl)cc3)N2C(=O)N2CCNC(=O)C2)c(OC(C)C)c1", "outcome": "inactive; negative"}, {"smiles": "C=CCCCC", "outcome": "inactive; negative"}, {"smiles": "OC1CCCCC1", "outcome": "inactive; negative"}, {"smiles": "CCCCC(=O)OCC", "outcome": "inactive; negative"}, {"smiles": "Nc1cc(Cl)ccc1O", "outcome": "active; weakly positive"}, {"smiles": "CC(C)(OO)c1ccccc1", "outcome": "active; positive"}, {"smiles": "Cc1cc(C(=O)O)ccc1[N+](=O)[O-]", "outcome": "active; positive"}, {"smiles": "CC12CCC(CC1)C(C)(C)O2", "outcome": "inactive; negative"}, {"smiles": "O=C(O)CC[N+](=O)[O-]", "outcome": "active; positive"}, {"smiles": "O=C(O)c1ccccc1", "outcome": "inactive; negative"}, {"smiles": "Oc1cc(Cl)c(Cl)c(Cl)c1Cl", "outcome": "inactive; negative"}, {"smiles": "N#CCCC#N", "outcome": "inactive; negative"}, {"smiles": "c1cc2c3c(c1)ccc1cccc(c13)C2", "outcome": "active; positive"}, {"smiles": "CN(C)C(=O)Oc1ccc[n+](C)c1", "outcome": "inactive; negative"}, {"smiles": "CCN1CCOCC1", "outcome": "active; weakly positive"}, {"smiles": "ClCC(Cl)(Cl)Cl", "outcome": "inactive; negative"}, {"smiles": "FC(F)(F)c1ccc(Cl)cc1", "outcome": "inactive; negative"}, {"smiles": "CSSC", "outcome": "inactive; negative"}, {"smiles": "CC(O)C#N", "note": "(stereo not drawn)", "outcome": "active; weakly positive"}, {"smiles": "Cc1ccc(C(=O)O)cc1[N+](=O)[O-]", "outcome": "active; positive"}, {"smiles": "N#C/C=C/C#N", "outcome": "inactive; negative"}, {"smiles": "ClC(Cl)(Cl)c1ccccc1", "outcome": "active; positive"}, {"smiles": "Oc1ccc(Cl)c(Cl)c1", "outcome": "inactive; negative"}, {"smiles": "Oc1cccc2cccnc12", "outcome": "active; positive"}, {"smiles": "O=c1cc(-c2ccccc2)oc2ccc3ccccc3c12", "outcome": "inactive; negative"}, {"smiles": "C=CCNC(N)=O", "outcome": "active; positive"}, {"smiles": "NC(=O)N=NC(N)=O", "outcome": "active; positive"}, {"smiles": "S=c1[nH]c2ccccc2[nH]1", "outcome": "inactive; negative"}, {"smiles": "CC1CNCC(C)O1", "note": "(stereo not drawn)", "outcome": "active; positive"}, {"smiles": "Nc1ccc(Cl)cc1Cl", "outcome": "active; weakly positive"}, {"smiles": "O=C(c1ccccc1)C(O)c1ccccc1", "note": "(stereo not drawn)", "outcome": "active; weakly positive"}, {"smiles": "Cc1cc(N)ccc1-c1ccc(N)cc1C", "outcome": "active; positive"}, {"smiles": "O=NO", "outcome": "active; positive"}, {"smiles": "C=CC(C)=O", "outcome": "active; positive"}, {"smiles": "C=CC(=O)CC", "outcome": "active; positive"}, {"smiles": "CCCc1cc(=O)[nH]c(=S)[nH]1", "outcome": "inactive; negative"}, {"smiles": "c1ccc2c(c1)ccc1ncccc12", "outcome": "active; positive"}, {"smiles": "CC(C)CNCC(C)C", "outcome": "inactive; negative"}, {"smiles": "COc1ccc(N=[N+]([O-])c2ccc(OC)cc2)cc1", "outcome": "active; positive"}, {"smiles": "O=C(O)C(Cl)Cl", "outcome": "active; positive"}, {"smiles": "O=C(O)CCCC(=O)O", "outcome": "inactive; negative"}, {"smiles": "Nc1cc([N+](=O)[O-])cc(Cl)c1O", "outcome": "active; positive"}, {"smiles": "CC(C)O", "outcome": "inactive; negative"}, {"smiles": "CC1=C(/C=C/C(C)=C/C=C/C(C)=C\\C=O)C(C)(C)CCC1", "outcome": "active; weakly positive"}, {"smiles": "CCCCCCN", "outcome": "inactive; negative"}, {"smiles": "BrCC(Br)C1CCC(Br)C(Br)C1", "note": "(stereo not drawn)", "outcome": "inactive; negative"}, {"smiles": "OCCN1CC1", "outcome": "active; positive"}, {"smiles": "ClC(Cl)c1ccccc1", "outcome": "active; positive"}, {"smiles": "CS(=O)(=O)c1ccc(O)c(N)c1", "outcome": "inactive; negative"}]}]}
